Patent US12635715B2, “Isofucosterol and combinations of isofucosterol and a multiplicity of sterols as a nutrient for animals” (APIX BIOSCIENCES, priority 2022, dated 2026)

System: honeybee colonies (Apidea nucs)
Assay: Brood production in Apidea nucs fed isofucosterol diets (Example 3)
Type: in vivo, honeybees
Settings: as the concentration of isofucosterol in the diet increased; N>3 colonies/treatment
Experimental: Honeybees: Fully functional insulated styrofoam Apidea nucs comprised 5 mini frames populated with adult workers and 1 mated laying queen bee were populated with 300-400 ml of young adult workers (˜N<1.000 bees of mixed ages).
Each treatment was tested with 3-6 colonies; each colony was fed with a 60-100 g patty (solid diet) on the top feeder fitted with a mesh floor. Diet was fed on the first day and again on day 6; the quantity consumed was measured on day 6 and day 15. If no larvae or eggs/queen are observed by day 6 then the experiment is terminated. The number of capped brood cells was counted on day 15. The number of bee seams was estimated during each inspection. Sugar syrup (34%) and water was provided in feeders inside the tent to prevent carbohydrate starvation and to stimulate foraging activity.
In Example 3, bees were fed with a diet containing 10-18% protein, 6% fat, 1% vitamins/minerals and >75% carbohydrates.
As the concentration of isofucosterol increased, the amount of brood produced in each colony increased (N>3 colonies/treatment). The pupae, and the number of new adults was counted over the entire 10-week period.

In the case of `C/C=C(/CC[C@@H](C)[C@H]1CC[C@H]2[C@@H]3CC=C4C[C@@H](O)CC[C@]4(C)[C@H]3CC[C@]12C)C(C)C` [isofucosterol, Isofucosterol], the “amount of brood produced in each colony” value is reported as “increased”.
